In patent publication US10245261B2, “Substituted indol-5-ol derivatives and their therapeutic applications” (NantBioScience, Inc., priority 2013, dated 2019):

Assays:
Assay in all cases: KinaseProfiler kinase assay
Assay type in all cases: biochemical
Arg(m) = Arg(m) (Mus musculus, UniProt Q4JIM5)
Procedure, shortened: (§1)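 Steps: compound diluted from DMSO into MOPS/BSA assay buffer; MgATP mix with [γ-33P]ATP added to start; 40 min incubation at room temperature; phosphoric acid stop; filtermat spotting, washing in 50 mM phosphoric acid and methanol; scintillation counting.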

MAPK2(m) = MAPK2(m) (Mus musculus, UniProt P63085)
Procedure, shortened: as §1

EphB4(h) = EphB4(h) (Homo sapiens, UniProt P54760)
Procedure, shortened: as §1

SGK(h) = SGK(h) (Homo sapiens, UniProt O00141)
Procedure, shortened: as §1

DCAMKL2(h) = DCAMKL2(h) (Homo sapiens, UniProt Q8N568)
Procedure, shortened: as §1

[1] = target: PI3 Kinase (p110δ/p85α)(h) (Homo sapiens, UniProt O00329)
Procedure, shortened: as §1

MKK7β(h) = MKK7β(h) (Homo sapiens, UniProt O14733)
Chain of MKK7β(h) (O14733 whole entry): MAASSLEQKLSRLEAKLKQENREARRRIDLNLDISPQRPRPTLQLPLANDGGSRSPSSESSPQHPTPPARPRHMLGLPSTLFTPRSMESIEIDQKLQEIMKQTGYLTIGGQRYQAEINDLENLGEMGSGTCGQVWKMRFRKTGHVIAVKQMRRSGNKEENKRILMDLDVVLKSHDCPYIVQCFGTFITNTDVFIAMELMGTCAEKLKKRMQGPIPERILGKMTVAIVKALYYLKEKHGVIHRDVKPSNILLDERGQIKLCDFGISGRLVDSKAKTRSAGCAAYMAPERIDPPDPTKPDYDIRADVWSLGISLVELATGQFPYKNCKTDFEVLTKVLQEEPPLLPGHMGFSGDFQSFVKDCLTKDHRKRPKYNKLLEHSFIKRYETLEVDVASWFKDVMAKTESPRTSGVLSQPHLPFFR
Procedure, shortened: as §1

JNK3(h) = JNK3(h) (Homo sapiens, UniProt P53779)
Procedure, shortened: as §1

GRK6(h) = GRK6(h) (Homo sapiens, UniProt P43250)
Procedure, shortened: as §1

PDGFRβ(h) = PDGFRβ(h) (Homo sapiens, UniProt P09619)
Chain of PDGFRβ(h) (P09619 33-1106): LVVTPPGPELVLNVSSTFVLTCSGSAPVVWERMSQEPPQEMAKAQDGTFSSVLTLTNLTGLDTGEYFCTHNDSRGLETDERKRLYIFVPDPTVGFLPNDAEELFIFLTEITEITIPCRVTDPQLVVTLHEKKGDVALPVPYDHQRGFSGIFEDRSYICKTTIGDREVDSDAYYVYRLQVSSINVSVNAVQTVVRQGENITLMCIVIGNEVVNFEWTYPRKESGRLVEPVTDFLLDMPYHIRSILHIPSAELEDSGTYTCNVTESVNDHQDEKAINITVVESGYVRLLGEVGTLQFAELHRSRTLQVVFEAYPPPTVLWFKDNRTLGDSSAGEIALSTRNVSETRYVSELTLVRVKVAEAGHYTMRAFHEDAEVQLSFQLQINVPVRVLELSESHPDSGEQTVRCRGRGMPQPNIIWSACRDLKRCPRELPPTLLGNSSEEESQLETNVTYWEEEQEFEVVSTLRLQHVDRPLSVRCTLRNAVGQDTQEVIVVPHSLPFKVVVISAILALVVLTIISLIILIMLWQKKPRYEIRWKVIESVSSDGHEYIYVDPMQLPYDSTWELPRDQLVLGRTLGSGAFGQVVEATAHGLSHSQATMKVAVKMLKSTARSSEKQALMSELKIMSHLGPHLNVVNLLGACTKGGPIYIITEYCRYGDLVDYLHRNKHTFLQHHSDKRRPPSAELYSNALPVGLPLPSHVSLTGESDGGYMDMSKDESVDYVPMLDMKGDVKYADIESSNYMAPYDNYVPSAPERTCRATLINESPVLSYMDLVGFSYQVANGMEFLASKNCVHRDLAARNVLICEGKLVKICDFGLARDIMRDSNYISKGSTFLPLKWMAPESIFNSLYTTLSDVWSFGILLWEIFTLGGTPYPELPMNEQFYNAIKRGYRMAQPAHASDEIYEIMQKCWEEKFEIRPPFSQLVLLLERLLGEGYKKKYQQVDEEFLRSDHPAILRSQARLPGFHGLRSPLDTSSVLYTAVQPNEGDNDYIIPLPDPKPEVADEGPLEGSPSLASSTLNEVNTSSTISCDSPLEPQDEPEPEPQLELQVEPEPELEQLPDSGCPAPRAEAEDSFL
Procedure, shortened: as §1

ZIPK(h) = ZIPK(h) (Homo sapiens, UniProt O43293)
Procedure, shortened: as §1

ROCK-II(h) = ROCK-II(h) (Homo sapiens, UniProt O75116)
Procedure, shortened: as §1

PhKγ2(h) = PhKγ2(h) (Homo sapiens, UniProt P15735)
Chain of PhKγ2(h) (P15735 whole entry): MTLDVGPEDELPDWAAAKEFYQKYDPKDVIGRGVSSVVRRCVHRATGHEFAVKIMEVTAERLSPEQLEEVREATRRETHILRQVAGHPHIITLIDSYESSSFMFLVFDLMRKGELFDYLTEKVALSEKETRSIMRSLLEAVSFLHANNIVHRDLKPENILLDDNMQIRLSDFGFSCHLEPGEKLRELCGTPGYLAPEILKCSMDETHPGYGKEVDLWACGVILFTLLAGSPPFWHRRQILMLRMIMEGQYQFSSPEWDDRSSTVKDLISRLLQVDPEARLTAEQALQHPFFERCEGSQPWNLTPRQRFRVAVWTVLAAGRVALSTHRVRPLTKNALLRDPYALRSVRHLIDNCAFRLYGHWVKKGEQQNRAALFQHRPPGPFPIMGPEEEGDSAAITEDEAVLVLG
Procedure, shortened: as §1

Tie2 (h) = Tie2 (h) (Homo sapiens, UniProt Q02763)
Procedure, shortened: as §1

MLCK(h) = MLCK(h) (Homo sapiens, UniProt Q9H1R3)
Procedure, shortened: as §1

MKK6(h) = MKK6(h) (Homo sapiens, UniProt P52564)
Procedure, shortened: as §1

[2] = target: PI3 Kinase (p113α)(H1047R)/p85α)(m) (Mus musculus, UniProt P42337, H1047R)
Procedure, shortened: as §1

PKCβI(h) = PKCβI(h) (Homo sapiens, UniProt P05771)
Procedure, shortened: as §1

EphA3(h) = EphA3(h) (Homo sapiens, UniProt P29320)
Procedure, shortened: as §1

Mer(h) = Mer(h) (Homo sapiens, UniProt Q12866)
Procedure, shortened: as §1

Yes(h) = Yes(h) (Homo sapiens, UniProt P07947)
Procedure, shortened: as §1

[3] = target: PI3 Kinase (p110α(E545K)/p85α)(h) (Homo sapiens, UniProt P42336, E545K)
Procedure, shortened: as §1

DYRK2(h) = DYRK2(h) (Homo sapiens, UniProt Q92630)
Procedure, shortened: as §1

PKA(h) = PKA(h) (Homo sapiens, UniProt P17612)
Procedure, shortened: as §1

Ron(h) = Ron(h) (Homo sapiens, UniProt Q04912)
Procedure, shortened: as §1

WNK2(h) = WNK2(h) (Homo sapiens, UniProt Q9Y3S1)
Procedure, shortened: as §1

PTK5(h) = PTK5(h) (Homo sapiens, UniProt P42685)
Procedure, shortened: as §1

WNK3(h) = WNK3(h) (Homo sapiens, UniProt Q9BYP7)
Chain of WNK3(h) (Q9BYP7 whole entry): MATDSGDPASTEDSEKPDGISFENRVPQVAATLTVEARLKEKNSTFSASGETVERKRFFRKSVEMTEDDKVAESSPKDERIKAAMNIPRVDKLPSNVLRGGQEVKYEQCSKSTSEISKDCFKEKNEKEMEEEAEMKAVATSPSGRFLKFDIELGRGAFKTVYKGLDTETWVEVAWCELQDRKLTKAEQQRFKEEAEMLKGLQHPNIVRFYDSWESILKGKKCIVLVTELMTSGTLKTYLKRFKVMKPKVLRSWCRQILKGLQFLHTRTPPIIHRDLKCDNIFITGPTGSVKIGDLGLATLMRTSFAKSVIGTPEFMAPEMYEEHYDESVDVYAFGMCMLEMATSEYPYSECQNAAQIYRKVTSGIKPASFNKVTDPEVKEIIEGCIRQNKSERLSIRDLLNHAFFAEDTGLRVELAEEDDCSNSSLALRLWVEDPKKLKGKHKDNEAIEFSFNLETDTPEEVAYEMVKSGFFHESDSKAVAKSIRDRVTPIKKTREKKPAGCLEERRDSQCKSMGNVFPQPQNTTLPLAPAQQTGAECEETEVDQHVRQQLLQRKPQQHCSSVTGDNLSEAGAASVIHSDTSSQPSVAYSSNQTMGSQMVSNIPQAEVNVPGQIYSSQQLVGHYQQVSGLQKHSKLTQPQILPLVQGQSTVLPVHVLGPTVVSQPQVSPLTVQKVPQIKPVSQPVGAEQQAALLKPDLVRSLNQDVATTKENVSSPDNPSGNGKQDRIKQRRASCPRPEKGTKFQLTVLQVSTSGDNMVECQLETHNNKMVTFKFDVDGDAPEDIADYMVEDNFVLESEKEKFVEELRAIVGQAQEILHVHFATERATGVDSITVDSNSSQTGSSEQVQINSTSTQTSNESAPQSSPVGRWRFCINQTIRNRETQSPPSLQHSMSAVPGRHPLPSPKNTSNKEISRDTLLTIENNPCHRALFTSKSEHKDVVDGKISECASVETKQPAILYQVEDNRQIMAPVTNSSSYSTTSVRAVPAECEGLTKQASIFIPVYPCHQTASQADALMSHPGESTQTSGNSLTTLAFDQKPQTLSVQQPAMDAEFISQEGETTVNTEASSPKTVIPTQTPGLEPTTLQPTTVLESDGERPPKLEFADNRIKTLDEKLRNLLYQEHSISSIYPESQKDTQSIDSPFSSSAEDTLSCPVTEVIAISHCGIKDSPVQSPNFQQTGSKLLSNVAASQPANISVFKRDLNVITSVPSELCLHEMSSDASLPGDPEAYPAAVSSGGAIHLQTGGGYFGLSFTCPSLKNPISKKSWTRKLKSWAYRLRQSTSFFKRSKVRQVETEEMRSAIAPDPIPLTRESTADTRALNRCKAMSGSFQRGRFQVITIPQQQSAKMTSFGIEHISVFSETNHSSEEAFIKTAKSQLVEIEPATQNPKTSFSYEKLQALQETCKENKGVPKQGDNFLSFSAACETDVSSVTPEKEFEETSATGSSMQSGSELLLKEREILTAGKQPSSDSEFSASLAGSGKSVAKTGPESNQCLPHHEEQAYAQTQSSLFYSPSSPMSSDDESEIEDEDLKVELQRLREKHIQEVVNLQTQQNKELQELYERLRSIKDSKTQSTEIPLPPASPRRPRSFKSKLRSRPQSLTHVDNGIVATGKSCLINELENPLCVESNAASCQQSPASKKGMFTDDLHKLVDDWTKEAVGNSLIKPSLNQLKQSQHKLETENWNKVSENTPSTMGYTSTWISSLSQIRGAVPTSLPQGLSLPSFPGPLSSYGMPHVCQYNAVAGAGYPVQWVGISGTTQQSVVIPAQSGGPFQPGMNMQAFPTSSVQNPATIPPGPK
Procedure, shortened: as §1

IKKα(h) = IKKα(h) (Homo sapiens, UniProt O15111)
Procedure, shortened: as §1

Rsk2(h) = Rsk2(h) (Homo sapiens, UniProt P51812)
Chain of Rsk2(h) (P51812 whole entry): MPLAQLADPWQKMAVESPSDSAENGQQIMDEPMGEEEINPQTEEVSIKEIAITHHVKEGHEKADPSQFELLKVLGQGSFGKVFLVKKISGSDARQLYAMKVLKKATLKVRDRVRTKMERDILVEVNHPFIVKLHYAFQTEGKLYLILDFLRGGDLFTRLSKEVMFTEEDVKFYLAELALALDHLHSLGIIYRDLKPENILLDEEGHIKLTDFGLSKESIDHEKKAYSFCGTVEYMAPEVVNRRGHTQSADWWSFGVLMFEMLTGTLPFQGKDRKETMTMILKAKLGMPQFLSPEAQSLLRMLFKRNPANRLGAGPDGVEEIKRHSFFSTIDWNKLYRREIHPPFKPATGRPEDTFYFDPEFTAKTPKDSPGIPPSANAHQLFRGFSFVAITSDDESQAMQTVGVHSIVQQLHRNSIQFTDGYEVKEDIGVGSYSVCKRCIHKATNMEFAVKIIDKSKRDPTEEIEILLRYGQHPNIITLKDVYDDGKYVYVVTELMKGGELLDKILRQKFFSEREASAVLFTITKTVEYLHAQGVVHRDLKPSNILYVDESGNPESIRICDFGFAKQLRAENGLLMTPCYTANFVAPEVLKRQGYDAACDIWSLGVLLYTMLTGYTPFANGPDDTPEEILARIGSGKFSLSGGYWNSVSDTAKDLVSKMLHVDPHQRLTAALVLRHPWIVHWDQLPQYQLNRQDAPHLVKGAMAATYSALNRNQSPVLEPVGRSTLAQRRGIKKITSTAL
Procedure, shortened: as §1

MSK1(h) = MSK1(h) (Homo sapiens, UniProt O75582)
Procedure, shortened: as §1

PDK1(h) = PDK1(h) (Homo sapiens, UniProt O15530)
Chain of PDK1(h) (O15530 whole entry): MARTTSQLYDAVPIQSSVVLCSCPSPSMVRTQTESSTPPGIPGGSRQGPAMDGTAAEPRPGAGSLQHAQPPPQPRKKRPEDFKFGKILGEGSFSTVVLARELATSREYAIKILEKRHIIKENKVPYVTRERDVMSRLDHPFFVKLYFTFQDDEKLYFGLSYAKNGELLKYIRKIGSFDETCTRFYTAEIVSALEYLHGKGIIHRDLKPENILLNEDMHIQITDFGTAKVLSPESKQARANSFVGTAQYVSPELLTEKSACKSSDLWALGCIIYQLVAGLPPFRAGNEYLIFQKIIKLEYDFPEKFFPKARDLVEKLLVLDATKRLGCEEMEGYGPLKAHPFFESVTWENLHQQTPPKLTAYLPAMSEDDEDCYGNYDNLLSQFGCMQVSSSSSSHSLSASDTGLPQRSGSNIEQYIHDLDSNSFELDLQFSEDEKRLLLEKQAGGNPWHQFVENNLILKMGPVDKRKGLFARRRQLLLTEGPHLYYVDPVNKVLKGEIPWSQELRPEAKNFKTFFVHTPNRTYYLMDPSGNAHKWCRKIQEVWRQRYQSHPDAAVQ
Procedure, shortened: as §1

SMILES | inhibition at 0.1 µM (Arg(m)) [%] | inhibition at 0.1 µM (MAPK2(m)) [%] | inhibition at 0.1 µM (EphB4(h)) [%] | inhibition at 0.1 µM (SGK(h)) [%] | inhibition at 0.1 µM (DCAMKL2(h)) [%] | inhibition at 0.1 µM [1] [%] | inhibition at 0.1 µM (MKK7β(h)) [%] | inhibition at 0.1 µM (JNK3(h)) [%] | inhibition at 0.1 µM (GRK6(h)) [%] | inhibition at 0.1 µM (PDGFRβ(h)) [%] | inhibition at 0.1 µM (ZIPK(h)) [%] | inhibition at 0.1 µM (ROCK-II(h)) [%] | inhibition at 0.1 µM (PhKγ2(h)) [%] | inhibition at 0.1 µM (Tie2 (h)) [%] | inhibition at 0.1 µM (MLCK(h)) [%] | inhibition at 0.1 µM (MKK6(h)) [%] | inhibition at 0.1 µM [2] [%] | inhibition at 0.1 µM (PKCβI(h)) [%] | inhibition at 0.1 µM (EphA3(h)) [%] | inhibition at 0.1 µM (Mer(h)) [%] | other results
Cc1cc2c(F)c(Oc3nc(Nc4cc(C5CC5)[nH]n4)cc(N4CCN(C)CC4)n3)ccc2[nH]1 [Compound 10] | 99 | -16 | 85 | -38 | 16 | 2 | -26 | -1 | -5 | 28 | 1 | 11 | 2 | 100 | 0 | -5 | -1 | 2 | 47 | 97 | inhibition at 0.1 µM (Yes(h)): 99%; inhibition at 0.1 µM [3]: -2%; inhibition at 0.1 µM (DYRK2(h)): -6%; inhibition at 0.1 µM (PKA(h)): 2%; inhibition at 0.1 µM (Ron(h)): 34%; inhibition at 0.1 µM (WNK2(h)): -8%; inhibition at 0.1 µM (PTK5(h)): 72%; inhibition at 0.1 µM (WNK3(h)): 1%; inhibition at 0.1 µM (IKKα(h)): -12%; inhibition at 0.1 µM (Rsk2(h)): 37%; inhibition at 0.1 µM (MSK1(h)): 96%; inhibition at 0.1 µM (PDK1(h)): 13%
Cc1cc2c(F)c(Oc3nc(Nc4cc(C5CC5)[nH]n4)cc(N4CCNCC4)n3)ccc2[nH]1 [Compound 11, N-(5-cyclopropyl-1H-pyrazol-3-yl)-2-((4-fluoro-2-methyl-1H-indol-5-yl)oxy)-6-(piperazin-1-yl)pyrimidin-4-amine] | 102 | 10 | 85 | -19 | 15 | -1 | -16 | -6 | -14 | 24 | 7 | 3 | 13 | 98 | 0 | -13 | 0 | 5 | 56 | 96 | inhibition at 0.1 µM (Yes(h)): 101%; inhibition at 0.1 µM [3]: 2%; inhibition at 0.1 µM (DYRK2(h)): -1%; inhibition at 0.1 µM (PKA(h)): -12%; inhibition at 0.1 µM (Ron(h)): 43%; inhibition at 0.1 µM (WNK2(h)): -6%; inhibition at 0.1 µM (PTK5(h)): 72%; inhibition at 0.1 µM (WNK3(h)): 8%; inhibition at 0.1 µM (IKKα(h)): -3%; inhibition at 0.1 µM (Rsk2(h)): 7%; inhibition at 0.1 µM (MSK1(h)): 9%; inhibition at 0.1 µM (PDK1(h)): 3%
